How the values were obtained:
[1] = target: T1, human TRPA1 (Homo sapiens (Human), UniProt O75762); test: IC50 determination on the human TRPA1 channel, calcium fluorescence (Hamamatsu FDSS plate reader); type: cell-based; settings: CHO cells expressing human TRPA1; block of cinnamaldehyde induced calcium influx; 20 minutes compound incubation; Hill coefficient fixed to 1.5; read-out: hTRPA1 AUC IC50
Description: IC50s (effective concentration) of compounds on the human TRPA1 channel were determined using a Hamamatsu FDSS fluorescence plate reader. CHO cells expressing human TRPA1 were plated into 384-well plates, incubated overnight at 37 C, and loaded with BD calcium indicator dye for 1 hr at 37° C. followed by 15 minutes. at room temperature. The assay buffer was Hank's Balanced Salt Solution (HBSS) containing 20 mM HEPES (pH readjusted to 7.4) along with 0.02% BSA.
Following dye load and plate cool down, compounds were added to the cells using the FDSS while monitoring fluorescence to determine whether any of the test compounds have TRPA1 agonist activity. Plates were then incubated with compound for 20 minutes at room temperature prior to adding agonist. Following this incubation, […] cinnamaldehyde was added to all wells of the plate and block of this cinnamaldehyde induced calcium influx was measured.
Fixing the Hill coefficient will generally reduce variability of the IC50 determination. The IC50s were examined by eye to make sure the MIN and MAX points were set correctly prior to validation of the results.

[2] = target: T1, human TRPA1; test: FLIPR Tetra calcium influx assay, block of cinnamaldehyde-induced calcium influx in CHO cells expressing TRPA1 (human); type: cell-based; settings: 20 min compound incubation, 75 uM cinnamaldehyde (~EC80), Hill coefficient fixed to 1.5, read-out: hTRPA1 AUC IC50
In short: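 CHO cells loaded with calcium dye, preincubated with compounds 20 min at room temperature in HBSS/20 mM HEPES pH 7.4 with 0.02% BSA. Channels activated by ~EC80 cinnamaldehyde (75 uM human, 45 uM rat); block of calcium influx read on FLIPR Tetra, IC50 fitted with fixed Hill coefficient.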

T1 sequence (O75762 whole entry): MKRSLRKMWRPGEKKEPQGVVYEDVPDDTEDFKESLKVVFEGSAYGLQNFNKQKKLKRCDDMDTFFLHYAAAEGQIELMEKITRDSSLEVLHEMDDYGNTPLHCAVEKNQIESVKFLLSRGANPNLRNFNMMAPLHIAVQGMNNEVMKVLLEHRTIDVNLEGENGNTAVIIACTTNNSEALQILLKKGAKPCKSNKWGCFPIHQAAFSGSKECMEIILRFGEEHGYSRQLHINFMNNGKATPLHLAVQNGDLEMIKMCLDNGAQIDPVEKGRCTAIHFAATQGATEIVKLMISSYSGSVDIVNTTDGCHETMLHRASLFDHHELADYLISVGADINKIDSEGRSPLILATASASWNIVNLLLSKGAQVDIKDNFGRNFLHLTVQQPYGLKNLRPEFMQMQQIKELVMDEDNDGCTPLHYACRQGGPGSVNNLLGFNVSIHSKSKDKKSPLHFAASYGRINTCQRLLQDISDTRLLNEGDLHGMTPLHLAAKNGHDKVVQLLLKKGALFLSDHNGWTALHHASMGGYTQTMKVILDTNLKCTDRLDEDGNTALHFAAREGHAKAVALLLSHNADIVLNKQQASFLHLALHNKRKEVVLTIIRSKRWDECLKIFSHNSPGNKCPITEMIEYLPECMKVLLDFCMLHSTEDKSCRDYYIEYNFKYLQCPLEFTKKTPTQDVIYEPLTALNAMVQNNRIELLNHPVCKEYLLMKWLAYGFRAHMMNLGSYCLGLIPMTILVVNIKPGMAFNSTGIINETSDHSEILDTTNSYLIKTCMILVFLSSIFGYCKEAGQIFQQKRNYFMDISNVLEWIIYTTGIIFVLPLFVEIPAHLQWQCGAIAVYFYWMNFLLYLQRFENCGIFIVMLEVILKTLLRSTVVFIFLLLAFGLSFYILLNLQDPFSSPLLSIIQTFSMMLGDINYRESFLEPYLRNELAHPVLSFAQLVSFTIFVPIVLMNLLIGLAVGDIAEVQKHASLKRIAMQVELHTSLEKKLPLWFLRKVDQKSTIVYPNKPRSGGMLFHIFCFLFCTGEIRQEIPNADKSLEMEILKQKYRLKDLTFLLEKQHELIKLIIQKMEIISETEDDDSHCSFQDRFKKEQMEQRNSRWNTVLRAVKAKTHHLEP

Row | IC50 [1] | IC50 [2] | SMILES
1 | 284 nM | – | O=C(NCc1cc(-c2ccc(C(F)(F)F)nc2)ncn1)[C@]1(CO)CCCN1S(=O)(=O)c1ccc(F)cc1 [Example 7, (R)-1-(4-fluorophenylsulfonyl)-2-(hydroxymethyl)-N-((6-(6-(trifluoromethyl)pyridin-3-yl)pyrimidin-4-yl)methyl)pyrrolidine-2-carboxamide]
2 | 32 nM | – | O=C(NCc1cc(-c2ccc(SC(F)(F)F)cc2)ncn1)[C@@H]1C[C@@H](F)CN1S(=O)(=O)c1ccc(F)cc1 [Example 29, (2S,4R)-4-fluoro-1-(4-fluorophenylsulfonyl)-N-((6-(4-(trifluoromethylthio)phenyl)pyrimidin-4-yl)methyl)pyrrolidine-2-carboxamide]
3 | 23 nM | – | O=C(NCc1cc(-c2ccc(C(F)(F)F)cc2)ncn1)[C@@H]1[C@H]2CC[C@H](C2)N1S(=O)(=O)c1ccc(F)cc1 [Example 33, (1R,3S,4S)-2-(4-fluorophenylsulfonyl)-N-((6-(4-(trifluoromethyl)phenyl)pyrimidin-4-yl)methyl)-2-azabicyclo[2.2.1]heptane-3-carboxamide]
4 | 15 nM | – | O=C(NCc1cc(-c2ccc(C(F)(F)F)cc2)ncn1)[C@@H]1C[C@@H](F)CN1S(=O)(=O)c1ccc(F)cc1 [Example 5, (2S,4R)-4-fluoro-1-(4-fluorophenylsulfonyl)-N-((6-(4-(trifluoromethyl)phenyl)pyrimidin-4-yl)methyl)pyrrolidine-2-carboxamide]
5 | 27 nM | – | O=C(NCc1cc(-c2ccc(C(F)(F)F)nc2)ncn1)[C@@H]1C[C@@H](F)CN1S(=O)(=O)c1ccc(Cl)s1 [Example 24, (2S,4R)-1-(5-chlorothiophen-2-ylsulfonyl)-4-fluoro-N-((6-(6-(trifluoromethyl)pyridin-3-yl)pyrimidin-4-yl)methyl)pyrrolidine-2-carboxamide]
6 | 30 nM | – | O=C(NCc1cn(-c2ccc(C(F)(F)F)nc2)nc1Cl)[C@@H]1C[C@@H](F)CN1S(=O)(=O)c1ccc(F)cc1 [Example 15, (2S,4R)—N-([3-chloro-1-[6-(trifluoromethyl)pyridin-3-yl]-1H-pyrazol-4-yl]methyl)-4-fluoro-1-[(4-fluorobenzene)sulfonyl]pyrrolidine-2-carboxamide]
7 | 252 nM | – | COC[C@@]1(C(=O)NCc2cc(-c3ccc(C(F)(F)F)nc3)ncn2)CCCN1S(=O)(=O)c1ccc(F)cc1 [Example 30, (R)-1-(4-fluorophenylsulfonyl)-2-(methoxymethyl)-N-((6-(6-(trifluoromethyl)pyridin-3-yl)pyrimidin-4-yl)methyl)pyrrolidine-2-carboxamide]
8 | 30 nM | – | O=C(NCc1cc(-c2ccc(C(F)(F)F)cc2)ncn1)[C@@H]1C[C@@H](F)CN1S(=O)(=O)c1ccc(F)c(F)c1 [Example 26, (2S,4R)-1-(3,4-difluorophenylsulfonyl)-4-fluoro-N-((6-(4-(trifluoromethyl)phenyl)pyrimidin-4-yl)methyl)pyrrolidine-2-carboxamide]
9 | 434 nM | – | O=C(NCc1cc(N2CCC(C(F)(F)F)CC2)ncn1)[C@@H]1C[C@@H](F)CN1S(=O)(=O)c1ccc(F)cc1 [Example 11, (2S,4R)-4-fluoro-1-(4-fluorophenylsulfonyl)-N-((6-(4-(trifluoromethyl)piperidin-1-yl)pyrimidin-4-yl)methyl)pyrrolidine-2-carboxamide]
10 | 30 nM | – | O=C(NCc1cc(C2=CCC(C(F)(F)F)CC2)ncn1)[C@@H]1C[C@@H](F)CN1S(=O)(=O)c1ccc(F)cc1 (stereo partly drawn) [Example 12, (2S,4R)-4-fluoro-1-(4-fluorophenylsulfonyl)-N-((6-(4-(trifluoromethyl)cyclohex-1-enyl)pyrimidin-4-yl)methyl)pyrrolidine-2-carboxamide]
11 | 55 nM | – | O=C(NCc1cn(-c2ccc(C(F)(F)F)nc2)nc1C1CC1)[C@@H]1C[C@@H](F)CN1S(=O)(=O)c1ccc(F)cc1 [Example 17, (2S,4R)—N-([3-cyclopropyl-1-[6-(trifluoromethyl)pyridin-3-yl]-1H-pyrazol-4-yl]methyl)-4-fluoro-1-[(4-fluorobenzene)sulfonyl]pyrrolidine-2-carboxamide]
12 | 59 nM | – | C[C@@]1(C(=O)NCc2cc(-c3ccc(C(F)(F)F)nc3)ncn2)CCN1S(=O)(=O)c1ccc(F)cc1 [Example 2, (S)-1-(4-fluorophenylsulfonyl)-2-methyl-N-((6-(6-(trifluoromethyl)pyridin-3-yl)pyrimidin-4-yl)methyl)azetidine-2-carboxamide]
13 | 229 nM | – | O=C(NCc1cc(-c2ccc(C(F)(F)F)cc2)ncn1)[C@@H]1C[C@@H](F)CN1S(=O)(=O)c1cncc(F)c1 [Example 28, (2S,4R)-4-fluoro-1-(5-fluoropyridin-3-ylsulfonyl)-N-((6-(4-(trifluoromethyl)phenyl)pyrimidin-4-yl)methyl)pyrrolidine-2-carboxamide]
14 | 21 nM | – | O=C(NCc1cc(N2CCC(C(F)(F)F)CC2)c(F)cn1)[C@@H]1C[C@@H](F)CN1S(=O)(=O)c1ccc(F)cc1 [Example 37, (2S,4R)-4-fluoro-N-((5-fluoro-4-(4-(trifluoromethyl)piperidin-1-yl)pyridin-2-yl)methyl)-1-(4-fluorophenylsulfonyl)pyrrolidine-2-carboxamide]
15 | 87 nM | – | Cc1nc(CNC(=O)[C@@H]2C[C@@H](F)CN2S(=O)(=O)c2ccc(F)cc2)cc(-c2ccc(C(F)(F)F)nc2)n1 [Example 22, (2S,4R)-4-fluoro-1-(4-fluorophenylsulfonyl)-N-((2-methyl-6-(6-(trifluoromethyl)pyridin-3-yl)pyrimidin-4-yl)methyl)pyrrolidine-2-carboxamide]
16 | 29 nM | – | O=C(NCc1cc(-c2ccc(C(F)(F)F)nc2)ncn1)[C@]1(C(F)F)CCCN1S(=O)(=O)c1ccc(F)cc1 [Example 31, (S)-2-(difluoromethyl)-1-(4-fluorophenylsulfonyl)-N-((6-(6-(trifluoromethyl)pyridin-3-yl)pyrimidin-4-yl)methyl)pyrrolidine-2-carboxamide]
17 | 268 nM | – | C[C@@]1(C(=O)NCc2cc(-c3ccc(C(F)(F)F)cn3)ncn2)CCCN1S(=O)(=O)c1ccc(F)cc1 [Example 14, (S)-1-(4-fluorophenylsulfonyl)-2-methyl-N-((6-(5-(trifluoromethyl)pyridin-2-yl)pyrimidin-4-yl)methyl)pyrrolidine-2-carboxamide]
18 | 49 nM | – | N#Cc1ccc(S(=O)(=O)N2C[C@H](F)C[C@H]2C(=O)NCc2cn(-c3ccc(C(F)(F)F)cc3)nc2Cl)cc1 [Example 18, (2S,4R)—N-([3-chloro-1-[4-(trifluoromethyl)phenyl]-1H-pyrazol-4-yl]methyl)-1-[(4-cyanobenzene)sulfonyl]-4-fluoropyrrolidine-2-carboxamide]
19 | 20 nM | – | O=C(NCc1cc(-c2ccc(C(F)(F)F)nc2)c(F)cn1)[C@@H]1C[C@@H](F)CN1S(=O)(=O)c1ccc(F)cc1 [Example 9, (2S,4R)-4-fluoro-N-((5′-fluoro-6-(trifluoromethyl)-3,4′-bipyridin-2′-yl)methyl)-1-(4-fluorophenylsulfonyl)pyrrolidine-2-carboxamide]
20 | 7 nM | – | C[C@@]1(C(=O)NCc2cc(-c3ccc(C(F)(F)F)cc3)ncn2)C[C@@H](F)CN1S(=O)(=O)c1ccc(F)cc1 (single isomer, unassigned) [Example 20]
21 | – | 162 nM | Cc1cnc(CNC(=O)[C@@H]2C[C@@H](F)CN2S(=O)(=O)c2ccc(F)cc2)cc1-c1ccc(C(F)(F)F)nc1 [Example 96, (2S,4R)-4-fluoro-1-(4-fluorophenyl)sulfonyl-N-[[5-methyl-4-[6-(trifluoromethyl)-3-pyridyl]-2-pyridyl]methyl]pyrrolidine-2-carboxamide]
22 | – | 41 nM | O=C(NCc1cc(-c2ccc(OC(F)F)cc2)ncn1)[C@@H]1C[C@@H](F)CN1S(=O)(=O)c1ccc(F)cc1 [Example 64, (2S,4R)—N-[[6-[4-(difluoromethoxy)phenyl]pyrimidin-4-yl]methyl]-4-fluoro-1-(4-fluorophenyl)sulfonyl-pyrrolidine-2-carboxamide]

Row | SMILES | IC50 [1] | IC50 [2]
23 | O=C(NCc1cc(-c2ccc(C(F)(F)F)nc2)ncn1)[C@@H]1C[C@H](F)CN1S(=O)(=O)c1ccc(F)cc1 [Example 4, (2S,4S)-4-fluoro-1-(4-fluorophenylsulfonyl)-N-((6-(6-(trifluoromethyl)pyridin-3-yl)pyrimidin-4-yl)methyl)pyrrolidine-2-carboxamide] | 819 nM | –
24 | O=C(NCc1cc(-c2ccc(C(F)(F)F)nc2)ncn1)[C@@H]1[C@H](F)CCN1S(=O)(=O)c1ccc(F)cc1 [Example 36, (2R,3R)-3-fluoro-1-(4-fluorophenylsulfonyl)-N-((6-(6-(trifluoromethyl)pyridin-3-yl)pyrimidin-4-yl)methyl)pyrrolidine-2-carboxamide] | 120 nM | –
25 | O=C(NCc1cc(-c2ccc(C(F)(F)F)nc2)ncn1)[C@@H]1[C@@H](F)CCN1S(=O)(=O)c1ccc(F)cc1 [Example 136, (2R,3S)-3-fluoro-1-(4-fluorophenylsulfonyl)-N-((6-(6-(trifluoromethyl)pyridin-3-yl)pyrimidin-4-yl)methyl)pyrrolidine-2-carboxamide] | – | 21 nM

— US11236046B2, “Substituted heterocyclic sulfonamide compounds useful as TRPA1 modulators” (Genentech, Inc., priority 2013, dated 2022)
